Source: publication PMC4057637, “Efficacy of novel antibacterial compounds targeting histidine kinase YycG protein” (Applied Microbiology and Biotechnology, 2014)
Values after ≈ are worked out from the molar mass of the structure shown.

Columns and labels:
[1] = target: T1, recombinant YycG′ (Staphylococcus epidermidis, UniProt Q5HK19); experiment: Inhibition of YycG′ autophosphorylation (Kinase-Glo Luminescent Kinase Assay); assay type: biochemical, S. epidermidis; details: for IC50: autophosphorylation of recombinant YycG′, Kinase-Glo; for inhibition of enzymatic autophosphorylation of YycG′: 100 μM derivative, YycG′ 0.13 μM
T1 construct: made in house; host or cells: E. coli BL21 (DE3)
T1 sequence (Q5HK19 370-610): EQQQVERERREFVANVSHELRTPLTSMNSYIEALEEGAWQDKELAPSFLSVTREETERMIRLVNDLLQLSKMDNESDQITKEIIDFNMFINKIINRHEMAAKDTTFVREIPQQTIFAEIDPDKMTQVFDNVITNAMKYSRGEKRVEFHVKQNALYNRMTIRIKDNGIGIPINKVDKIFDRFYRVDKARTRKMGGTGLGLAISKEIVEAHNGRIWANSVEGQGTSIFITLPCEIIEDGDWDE
Protocol: Recombinant YycG (YycG′, amino acids 370–610) was prepared by expressing the HATPase_c and HisKA domains of YycG in E. coli BL21 (DE3). In brief, the sequence coding for YycG′ was amplified from the genome of S. epidermidis ATCC 35984 by PCR and cloned into the pET28a (+) vector, which inserts a GB1 tag (B1 domain of protein G, 56 residues) to make the recombinant fusion protein highly soluble and stable. The recombinant YycG′ protein was fused to the GB1 tag at its N-terminus end, expressed in E. coli BL21 (DE3) and purified by Ni^2+ affinity chromatography on a Ni-NTA column (Qiagen, Germany). The purified YycG′ was cleaved by TEV protease and further purified by Ni-NTA and Superdex 75 gel filtration columns (GE Healthcare, USA).
The Kinase-Glo™ Luminescent Kinase Assay (Promega, Madison, WI, USA) was used to measure the inhibitory activities of the derivatives against the autophosphorylation activity of the recombinant YycG′ following the manufacturer’s recommendation. The derivatives were serially diluted from 200 to 1.6 μM with reaction buffer (40 mM Tris pH 8.0, 20 mM MgCl2, and 0.1 mg/ml BSA). Recombinant YycG′ (0.02 μg/μl) and diluted derivative were added into a 96-well plate and incubated at 25 °C for 30 min, and then 4 μM ATP was added into each well and incubated for another 30 min. Finally, 50 μl Kinase-Glo™ Reagent containing luciferase (kinase) and D-luciferin was added. The luminescent signal generated by luciferase was in proportion to the amount of ATP remaining in the reaction. Luminescence was detected by a Perkin Elmer Victor X5 luminescence plate reader, and the intensity was recorded as relative light units (RLU). The wells containing ATP and Kinase-Glo™ without YycG′ and derivatives or containing YycG′ plus ATP and Kinase-Glo™ without the derivatives were used as the controls. The percentage inhibition of protein phosphorylation (Rp) by the derivatives was calculated as follows: Rp=RLUYycG^’+derivative+ATP+Kinase-Glo^TM-RLUYycG^’+ATP+Kinase-Glo^TM/RLUATP+Kinase-Glo^TM-RLUYycG^’+ATP+Kinase-Glo^TM×100
The concentration of a derivative required to inhibit half of the autophosphorylation of recombinant YycG′ (half maximal inhibitory concentration, IC50) was calculated with Origin 8.0 software (Origin Lab, Northampton, USA). Three independent assays were carried out, and each was performed in quadruplicate.

[2] = system: S. epidermidis ATCC 35984; experiment: MIC and MBC assays, broth dilution; assay type: cell-based; details: for MBC / MIC/MBC: S. epidermidis ATCC 35984; for MIC: ATCC35984, S. epidermidis ATCC 35984, MH broth
Protocol: (§1) MICs of the derivatives for S. epidermidis and S. aureus were determined by the broth dilution method according to the National Committee for Clinical Laboratory (NCCLS) recommendations (Turnidge and Bordash [2007]). Twofold dilutions of the derivatives in tubes containing 4 ml of Mueller-Hinton broth (MH, Sigma, Germany) were made to concentrations from 200 to 0.39 μM. Overnight cultures of the bacteria were adjusted to the 0.5 McFarland standards and inoculated 1:200 into the MH broth and then incubated at 37 °C for 16–20 h. The lowest concentration inhibiting visible growth of the bacteria was recorded as minimal inhibitory concentration (MIC).

[3] = system: Clinical MRSE strains; experiment: MIC, broth dilution; assay type: cell-based, S. epidermidis; details: Staphylococcus epidermidis; Clinical MRSE strains (n = 5)
Protocol: (§2) Bacterial strains S. epidermidis ATCC 12228 (nonbiofilm forming), S. epidermidis ATCC 35984 (biofilm forming), S. aureus ATCC 49230, and S. aureus ATCC 25923 were from the American Type Culture Collection (ATCC, Manassas, USA) and were cultured in tryptic soy broth medium (TSB; Oxoid Ltd., Basingstoke, England). Ten clinical methicillin-resistant staphylococcal isolates, five MRSA isolates and five MRSE isolates, were collected from Huadong Teaching Hospital in Shanghai. Escherichia coli ATCC 25922 was grown in Luria-Bertani (LB) broth. The six compounds used in this study (H2-38, H2-39, H2-57, H2-60, H2-74, and H2-81) were screened from 56 derivatives of compound 2 in which the functional groups were modified, but the thiazolidine core structure was unchanged. The compounds were synthesized by Nanjing University of Technology. To generate the derivative compounds, halogen atoms were introduced into 4-thiazolidinone compounds that contained carboxylic acid moieties of phenoxy-acetic acid, (5-vinyl-furan-2-yl)-benzoic acid or (5-vinyl-thiophene-2-yl)-benzoic acid. The derivatives were dissolved in dimethyl sulfoxide (DMSO; Amresco, USA) to 200 mM for use as stock solutions.
as §1

[4] = system: Clinical MRSA strains; experiment: MIC, broth dilution; assay type: cell-based, S. aureus; details: Staphylococcus aureus; Clinical MRSA strains (n = 5)
Protocol: as §2, §1

[5] = Cytotoxicity, MTT assay; assay type: cell-based; details: African green monkey, Vero 76 cells
Protocol: Vero 76 cells (African green monkey cells) were used to determine the cytotoxicity of the derivatives with the Cell Proliferation Kit I (MTT) (Roche, Indianapolis, USA). The Vero cells were grown in Dulbecco’s modified Eagle’s medium (DMEM), supplemented with 5 % fetal calf serum, 100 U/ml penicillin, […] streptomycin, and 2 mM L-glutamine. After culturing in 5 % CO2 at 37 °C for 48 h, the cells were harvested and dispensed into 96-well cell culture plates containing 5 × 10^4 cells per well in 100 μl. The cells were co-incubated with serial twofold dilutions of derivatives from 200 to 6.25 μM (six different concentrations) for 24 h at 37 °C in 5 % CO2. Then, 10 μl of the MTT labeling reagent (final concentration 0.5 mg/ml) was added to each well and incubated for 4 h. The solubilization solution (100 μl per well) was added to dissolve the purple formazan salts generated in the viable cells, and the absorbance of each well was measured at 595 nm. Cells treated with the solvent (0.1 % DMSO) were used as a negative control and the cells cultured only with DMEM medium served as a blank control. The inhibitory rate was calculated as follows: Inhibitoryrate%=Ocontrol−ODtest/ODcontrol×100
CC50 was defined as the concentration of the derivatives that inhibited the Vero cell growth by 50 % and was calculated with the Origin v8.0 software (Origin Lab, Northampton, USA) (Qin et al. [2006]).

[6] = Staphylococcus epidermidis, ATCC35984

In the case of CCc1ccccc1/N=C1\S/C(=C\c2ccc(OCC(=O)O)c(OC)c2)C(=O)N1c1ccccc1CC [Compound 2, {2-{4-{3-(2-ethylphenyl)-2-[(2-ethylphenyl)imino]-4-oxothiazolidin-5-ylidene}methyl}-2-methoxyphenoxy}acetic acid], the IC50 [1] is reported as 47.9 ± 5.3 µM, the MBC [2] is reported as 100.0 µM (≈ 51.7 µg/mL) and the MIC/MBC [2] is reported as 1/4. The MIC ([2]; Staphylococcus epidermidis) was 25 µM (≈ 12.9 µg/mL), the MBC [2, 6] was 100 µM (≈ 51.7 µg/mL) and the MIC [3] was 25 to 50 µM (≈ 12.9 to 25.8 µg/mL). For the same compound, the MIC [4] was 25 to 50 µM (≈ 12.9 to 25.8 µg/mL) and the CC50 at 24 h [5] was 50 µM.
In the case of O=C(O)c1cccc(-c2ccc(C=C3SC(=Nc4ccc(Cl)cc4)N(c4ccc(Cl)cc4)C3=O)o2)c1 [H2-38, 3-{5-{{3-(4-chlorophenyl)-2-[(4-chlorophenyl)imino]-4-oxothiazolidin-5-ylidene}methyl}furan-2-yl}benzoic acid], the “inhibition of enzymatic autophosphorylation of YycG′” value (from here on “inhibition”) [1] is reported as 61.8%, the IC50 [1] is reported as 41.4 ± 3.4 µM and the MIC/MBC [2] is reported as 1/8. It also gave an MBC [2, 6] of 12.5 µM (≈ 6.69 µg/mL), an MIC [3] of 1.5 to 3.1 µM (≈ 0.803 to 1.66 µg/mL) and an MIC [4] of 1.5 to 3.1 µM (≈ 0.803 to 1.66 µg/mL). For the same compound, the CC50 at 24 h [5] was > 200 µM.
For O=C(O)c1ccc(-c2ccc(C=C3SC(=Nc4ccc(Cl)cc4)N(c4ccc(Cl)cc4)C3=O)o2)cc1 [H2-39, 4-{5-{{3-(4-chlorophenyl)-2-[(4-chlorophenyl)imino]-4-oxothiazolidin-5-ylidene}methyl}furan-2-yl}benzoic acid], the “inhibition” value [1] was 56.3%, the IC50 [1] was 59.8 ± 1.4 µM and the MIC/MBC [2] was 1/8. It also gave an MBC [2, 6] of 12.5 µM (≈ 6.69 µg/mL), an MIC [3] of 1.5 to 3.1 µM (≈ 0.803 to 1.66 µg/mL) and an MIC [4] of 1.5 to 3.1 µM (≈ 0.803 to 1.66 µg/mL). For the same compound, the CC50 at 24 h [5] was > 200 µM.
With O=C(O)c1ccc(-c2ccc(/C=C3\S/C(=N\c4ccccc4)N(c4ccc(Cl)cc4)C3=O)o2)cc1 [H2-57, 4-{5-{{3-(4-chlorophenyl)-2-[(4-phenyl)imino]-4-oxothiazolidin-5-ylidene}methyl}furan-2-yl}benzoic acid] the “inhibition” value [1] was 59.7%, the IC50 [1] was 47.1 ± 1.5 µM and the MIC/MBC [2] was 1/4. The MIC ([2]; Staphylococcus epidermidis) was ≤ 3.1 µM, the MBC [2, 6] was 12.5 µM (≈ 6.26 µg/mL) and the MIC [3] was 1.5 to 3.1 µM (≈ 0.751 to 1.55 µg/mL). The MIC [4] was 1.5 to 3.1 µM (≈ 0.751 to 1.55 µg/mL) and the CC50 at 24 h [5] was > 200 µM.
For O=C(O)c1ccc(-c2ccc(C=C3SC(=Nc4ccc(F)cc4)N(c4ccc(F)cc4)C3=O)s2)cc1 [H2-60, 4-{5-{{3-(4-fluorophenyl)-2-[(4-fluorophenyl)imino]-4-oxothiazolidin-5-ylidene}methyl}thiophene-2-yl}benzoic acid], the “inhibition” value [1] was 55.4%, the IC50 [1] was 63.7 ± 2.3 µM and the MIC/MBC [2] was 1/8. For the same compound, the MBC [2, 6] was 12.5 µM (≈ 6.48 µg/mL), the MIC [3] was 1.5 to 3.1 µM (≈ 0.778 to 1.61 µg/mL) and the MIC [4] was 1.5 to 3.1 µM (≈ 0.778 to 1.61 µg/mL). For the same compound, the CC50 at 24 h [5] was > 200 µM.
With O=C(O)COc1ccc(C=C2SC(=Nc3ccc(Cl)cc3)N(c3ccc(Cl)cc3)C2=O)cc1 [H2-74, 2-{4-{[3-(4-chlorophenyl)-2-[(4-chlorophenyl)imino]-4-oxothiazolidin-5-ylidene}methyl}phenoxy}acetic acid] the “inhibition” value [1] was 53.9%, the IC50 [1] was 71.2 ± 4.9 µM and the MIC/MBC [2] was 1/16. It also gave an MBC [2, 6] of 25 µM (≈ 12.5 µg/mL), an MIC [3] of 3.1 to 6.3 µM (≈ 1.55 to 3.15 µg/mL) and an MIC [4] of 3.1 to 6.3 µM (≈ 1.55 to 3.15 µg/mL). The CC50 at 24 h [5] was > 200 µM.
In the case of O=C(O)c1ccc(-c2ccc(/C=C3\S/C(=N\c4ccccc4)N(c4ccc(F)cc4)C3=O)s2)cc1 [H2-81, 4-{5-{{3-(4-fluorophenyl)-2-[(4-phenyl)imino]-4-oxothiazolidin-5-ylidene}methyl}thiophene-2-yl}benzoic acid], the “inhibition” value [1] is reported as 79.2%, the IC50 [1] is reported as 24.2 ± 1.2 µM and the MIC/MBC [2] is reported as 1/4. For the same compound, the MBC [2, 6] was 6.3 µM (≈ 3.15 µg/mL), the MIC [3] was 1.5 µM (≈ 0.751 µg/mL) and the MIC [4] was 1.5 µM (≈ 0.751 µg/mL). For the same compound, the CC50 at 24 h [5] was > 200 µM.
